Experiment: Evaluation of stability in liver microsome
Settings: mouse liver microsome 0.25 mg/mL, 1 μM test compound, 37° C. for 30 minutes
Method: Solutions of the test compounds in DMSO/acetonitrile (the final concentration of each test compound was 1 μM, the final concentration of DMSO was 0.01%, and the final concentration of acetonitrile was 1%) were individually added to a liver microsome mixture solution (mouse liver microsome with a final concentration of 0.25 mg/mL, a potassium phosphate buffer with a final concentration of 100 mM, and magnesium chloride with a final concentration of 3 mM), and each mixture was pre-incubated at 37° C. for 5 minutes. […] After incubation at 37° C. for 30 minutes, a double amount of ethanol was added thereto to terminate the reaction, thereby obtaining post-reaction samples. A double amount of ethanol was added to each of the remaining mixture solutions, and a NADPH-generating system was further added thereto, thereby obtaining pre-reaction samples. The pre-reaction samples and post-reaction samples were centrifuged at 2000×g, and their supernatant was filtered through a glass filter. Each filtrate was then introduced into LC-MS/MS, and MS/MS peaks of the test compounds were detected. From the ratio of the post-reaction MS/MS peak to the pre-reaction MS/MS peak of the test compounds, the percentage of the remaining test compounds (remaining %) was calculated.

Structure (SMILES)	Remaining (%)
COCc1ccc(NC(=O)c2c(OC[C@@H](C)OC)n(C3(C)CC3)c3ncnc(N)c23)cc1 [Example 96, (R)-4-amino-N-(4-(methoxymethyl)phenyl)-6-(2-methoxypropoxy)-7-(1-methylcyclopropyl)-7H-pyrrolo[2,3-d]pyrimidine-5-carboxamide]	71
COCc1ccc(NC(=O)c2c(OCC3CCCO3)n(C3(C)CC3)c3ncnc(N)c23)cc1 (stereo not drawn) [Example 135, 4-amino-N-(4-(methoxymethyl)phenyl)-7-(1-methylcyclopropyl)-6-((tetrahydrofuran-2-yl)methoxy)-7H-pyrrolo[2,3-d]pyrimidine-5-carboxamide]	67
[2H]C([2H])([2H])OCc1ccc(NC(=O)c2cn(C(C)(C)C)c3ncnc(N)c23)cc1 [Example 35, 4-amino-7-(tert-butyl)-N-(4-((methoxy-d3)-methyl)phenyl)-7H-pyrrolo[2,3-d]pyrimidine-5-carboxamide]	58
COCc1ccc(NC(=O)c2c(C#CCN3CCN(C)CC3)n(C3(C)CC3)c3ncnc(N)c23)cc1 [Example 132, 4-amino-N-(4-(methoxymethyl)phenyl)-7-(1methylcyclopropyl)-6-(3-(4-methylpiperazin-1-yl)prop-1-yn-1-yl)-7H-pyrrolo[2,3-d]pyrimidine-5-carboxamide]	77
COCc1ccc(NC(=O)c2c(OCC(C)C)n(C3(C)CC3)c3ncnc(N)c23)cc1 [Example 99, 4-amino-6-isobutoxy-N-(4-(methoxymethyl)phenyl)-7-(1-methylcyclopropyl)-7H-pyrrolo[2,3-d]pyrimidine-5-carboxamide]	51
COCc1ccc(NC(=O)c2c(C#CCC(C)(C)O)n(C3(C)CC3)c3ncnc(N)c23)cc1 [Example 86, 4-amino-6-(4-hydroxy-4-methylpent-1-yn-1-yl)-N-[4-(methoxymethyl)phenyl]-7-(1-methylcyclopropyl)-7H-pyrrolo[2,3-d]pyrimidine-5-carboxamide]	66
COCc1ccc(NC(=O)c2c(C#Cc3cccnc3)n(C3(C)CC3)c3ncnc(N)c23)cc1 [Example 94, 4-amino-N-[4-(methoxymethyl)phenyl]-7-(1-methylcyclopropyl)-6-(pyridin-3-ylethynyl)-7H-pyrrolo[2,3-d]pyrimidine-5-carboxamide]	60
COCc1ccc(NC(=O)c2c(-c3ccc(N4CCN(C)CC4)cc3)n(C3(C)CC3)c3ncnc(N)c23)cc1 [Example 171, 4-amino-N-(4-(methoxymethyl)phenyl)-7-(1-methylcyclopropyl)-6-(4-(4-methylpiperazin-1-yl)phenyl)-7H-pyrrolo[2,3-d]pyrimidine-5-carboxamide]	77
COCc1ccc(NC(=O)c2cn(C(C)(C)CF)c3ncnc(N)c23)cc1F [Example 41, 4-amino-7-(1-fluoro-2-methylpropan-2-yl)-N-(3-fluoro-4-(methoxymethyl)phenyl)-7H-pyrrolo[2,3-d]pyrimidine-5-carboxamide]	56
COCc1ccc(NC(=O)c2c(C3=CCOCC3)n(C3(C)CC3)c3ncnc(N)c23)cc1 [Example 203, 4-amino-6-(3,6-dihydro-2H-pyran-4-yl)-N-(4-(methoxymethyl)phenyl)-7-(1-methylcyclopropyl)-7H-pyrrolo[2,3-d]pyrimidine-5-carboxamide]	68
COCc1ccc(NC(=O)c2c(-c3ccc(CO)cc3)n(C3(C)CC3)c3ncnc(N)c23)cc1 [Example 145, 4-amino-6-(4-(hydroxymethyl)phenyl)-N-(4-(methoxymethyl)phenyl)-7-(1-methylcyclopropyl)-7H-pyrrolo[2,3-d]pyrimidine-5-carboxamide]	72
COCc1ccc(NC(=O)c2c(C#Cc3cnn(C)c3C)n(C3(C)CC3)c3ncnc(N)c23)cc1 [Example 182, 4-amino-6-((1,5-dimethyl-1H-pyrazol-4-yl)ethynyl)-N-(4-(methoxymethyl)phenyl)-7-(1-methylcyclopropyl)-7H-pyrrolo[2,3-d]pyrimidine-5-carboxamide]	61
COCc1ccc(NC(=O)c2c(C#CC(C)(C)N)n(C3(C)CC3)c3ncnc(N)c23)cc1 [Example 134, 4-amino-6-(3-amino-3-methylbut-1-yn-1-yl)-N-(4-(methoxymethyl)phenyl)-7-(1-methylcyclopropyl)-7H-pyrrolo[2,3-d]pyrimidine-5-carboxamide]	79
COCc1ccc(NC(=O)c2cn(C3(C)CC3)c3ncnc(N)c23)cc1 [Example 36, 4-amino-N-(4-(methoxymethyl)phenyl)-7-(1-methylcyclopropyl)-7H-pyrrolo[2,3-d]pyrimidine-5-carboxamide]	73
COCc1ccc(NC(=O)c2c(C#Cc3ccc(Cl)nc3)n(C3(C)CC3)c3ncnc(N)c23)cc1 [Example 120, 4-amino-6-((6-chloropyridin-3-yl)ethynyl)-N-(4-(methoxymethyl)phenyl)-7-(1-methylcyclopropyl)-7H-pyrrolo[2,3-d]pyrimidine-5-carboxamide]	72
COCc1ccc(NC(=O)c2c(-c3ccc(O)cc3)n(C3(C)CC3)c3ncnc(N)c23)cc1 [Example 148, 4-amino-6-(4-hydroxyphenyl)-N-(4-(methoxymethyl)phenyl)-7-(1-methylcyclopropyl)-7H-pyrrolo[2,3-d]pyrimidine-5-carboxamide]	61
COCc1ccc(NC(=O)c2c(C#Cc3c(C)noc3C)n(C3(C)CC3)c3ncnc(N)c23)cc1 [Example 184, 4-amino-6-((3,5-dimethylisoxazol-4-yl)ethynyl)-N-(4-(methoxymethyl)phenyl)-7-(1-methylcyclopropyl)-7H-pyrrolo[2,3-d]pyrimidine-5-carboxamide]	58
COCc1ccc(NC(=O)c2cn(C(C)(C)C(F)F)c3ncnc(N)c23)cc1 [Example 50, 4-amino-7-(1,1-difluoro-2-methylpropan-2-yl)-N-(4-(methoxymethyl)phenyl)-7H-pyrrolo[2,3-d]pyrimidine-5-carboxamide]	53
COCc1ccc(NC(=O)c2c(C#Cc3ccc(OC)cc3)n(C3(C)CC3)c3ncnc(N)c23)cc1 [Example 165, 4-amino-N-(4-(methoxymethyl)phenyl)-6-((4-methoxypheny)ethynyl)-7-(1-methylcyclopropyl)-7H-pyrrolo[2,3-d]pyrimidine-5-carboxamide]	90
COCc1ccc(NC(=O)c2c(C#Cc3cccs3)n(C3(C)CC3)c3ncnc(N)c23)cc1 [Example 119, 4-amino-N-(4-(methoxymethyl)phenyl)-7-(1-methylcyclopropyl)-6-(thiophen-2-ylethynyl)-7H-pyrrolo[2,3-d]pyrimidine-5-carboxamide]	70
CCOc1c(C(=O)Nc2ccc(-c3ccco3)cc2)c2c(N)ncnc2n1C1(C)CC1 [Example 116, 4-amino-6-ethoxy-N-(4-(furan-2-yl)phenyl)-7-(1-methylcyclopropyl)-7H-pyrrolo[2,3-d]pyrimidine-5-carboxamide]	55
COCc1ccc(NC(=O)c2c(-c3ccc(CO)nc3)n(C3(C)CC3)c3ncnc(N)c23)cc1 [Example 179, 4-amino-6-(6-(hydroxymethyl)pyridin-3-yl)-N-(4-(methoxymethyl)phenyl)-7-(1-methylcyclopropyl)-7H-pyrrolo[2,3-d]pyrimidine-5-carboxamide]	85
COCc1ccc(NC(=O)c2c(C#CC3(O)CCCC3)n(C3(C)CC3)c3ncnc(N)c23)cc1 [Example 131, 4-amino-6-((1-hydroxycyclopentyl)ethynyl)-N-(4-(methoxymethyl)phenyl)-7-(1-methylcyclopropyl)-7H-pyrrolo[2,3-d]pyrimidine-5-carboxamide]	55
COCc1ccc(NC(=O)c2c(C#Cc3c[nH]c4ccccc34)n(C3(C)CC3)c3ncnc(N)c23)cc1 [Example 121, 6-((1H-indol-3-yl)ethynyl)-4-amino-N-(4-(methoxymethyl)phenyl)-7-(1-methylcyclopropyl)-7H-pyrrolo[2,3-d]pyrimidine-5-carboxamide]	74
Nc1ncnc2c1c(C(=O)Nc1ccc(Oc3ccccc3)cc1)cn2C1CCCC1 [Compound 2 of Comparative Examples, 4-amino-7-cyclopentyl-N-(4-phenoxyphenyl)-7H-pyrrolo[2,3-d]pyrimidine-5-carboxamide, reference compound]	0
COCc1ccc(NC(=O)c2c(OC[C@@H]3CCCO3)n(C3(C)CC3)c3ncnc(N)c23)cc1 [Example 97, (S)-4-amino-N-(4-(methoxymethyl)phenyl)-7-(1-methylcyclopropyl)-6-((tetrahydrofuran-2-yl)methoxy)-7H-pyrrolo[2,3-d] pyrimidine-5-carboxamide]	70
COCc1ccc(NC(=O)c2cn(C3(C(F)F)CC3)c3ncnc(N)c23)cc1 [Example 46, 4-amino-7-(1-(difluoromethyl)cyclopropyl)-N-(4-(methoxymethyl)phenyl)-7H-pyrrolo[2,3-d]pyrimidine-5-carboxamide]	65
COCc1ccc(NC(=O)c2c(SC)n(C3(C)CC3)c3ncnc(N)c23)cc1 [Example 133, 4-amino-N-(4-methoxymethyl)phenyl-7-(1-methylcyclopropyl)-6-(methylthio)-7H-pyrrolo[2,3-d]pyrimidine-5-carboxamide]	70
COCc1ccc(NC(=O)c2c(C#Cc3ccccc3)n(C3(C)CC3)c3ncnc(N)c23)cc1 [Example 162, 4-amino-N-(4-(methoxymethyl)phenyl)-7-(1-methylcyclopropyl)-6-(phenylethynyl)-7H-pyrrolo[2,3-d]pyrimidine-5-carboxamide]	76

Same assay, conditions: mouse liver microsome, 1 μM, 37° C., 30 minutes

Structure (SMILES)	percentage of the remaining test compounds (remaining %) [%]
Nc1ncnc2c1c(C(=O)Nc1ccc(Oc3ccccc3)cc1)cn2C1CCCC1 [Compound 2 of Comparative Examples, 4-amino-7-cyclopentyl-N-(4-phenoxyphenyl)-7H-pyrrolo[2,3-d]pyrimidine-5-carboxamide, reference compound]	0

Reference: patent US10155768B2, “Fused pyrimidine compound or salt thereof” (TAIHO PHARMACEUTICAL CO., LTD., priority 2016, dated 2018)
